{"source": "patent US20200276181A1", "about": "“THIENOISOQUINOLINES AND THEIR DERIVATIVES FOR TARGETING TUBULIN, CH-TOG, AURORA A KINASE, TPX2, CDK5RAP2 AND/OR ASPM” (VALORBEC, SEC, priority 2017, published 2020)", "key": {"[1]": {"system": "A549 cells", "test": "Viability IC50, high-throughput automated analysis (Table 4)", "format": "cell-based", "details": "Homo sapiens, 3 population doubling times", "description": "(§1) FIG. 1A) is a line graph showing changes in the percentage of viable HFF-1, HeLa, A549 and HCT 116 cells after treatment with a range of C75 concentrations for 3 population doubling times (N=3). […] There were more rounded mitotic cells after C75 treatment in comparison to the control. FIG. 1C) is a line graph showing the percentage of HeLa and HFF1 cells in mitosis after treatment with various concentrations of C75 for 8 hours. The bars indicate standard deviation. FIG. 1D) is a series of images showing cells that were fixed and co-stained for tubulin (microtubules) and DAPI (DNA). Treatment of HeLa cells with 300 nM C75 caused the mitotic spindles to be disorganized, while they were not affected in HFF1 cells. […] The scale bar for the cells is 10 μm. […] FIG. 1F) is a cartoon schematic showing the key features of a metaphase cell.\n(§2) The images in FIG. 1B) show fields of view of HeLa cells treated with (dimethyl sulfoxide) DMSO or 500 nM of C75. […] Higher concentrations of C75 caused spindle phenotypes in HFF1 cells, but they were quite different in comparison to HeLa cells (FIG. 1D)."}, "[2]": {"system": "HCT 116 cells", "test": "Viability IC50, high-throughput automated analysis (Table 4)", "format": "cell-based", "details": "Homo sapiens, 3 population doubling times", "description": "as §1, §2"}, "[3]": {"system": "HFF-1 cells", "test": "Viability IC50, high-throughput automated analysis (Table 4)", "format": "cell-based", "details": "Homo sapiens, 3 population doubling times", "description": "as §1, §2"}, "[4]": {"system": "HeLa cells", "test": "Viability IC50, high-throughput automated analysis (Table 4)", "format": "cell-based", "details": "Homo sapiens, 3 population doubling times", "description": "as §1, §2"}, "[5]": {"system": "H1299 (non-small cell lung cancer) cells", "test": "Mitotic arrest after one population doubling time", "format": "cell-based, human", "details": "H1299, least responsive", "text": "(§3) For each condition, 20,000 cells were counted per replicate (N=3). Line graphs (right) were made to better illustrate the relative changes in the cell cycle phases for the different treatments. Bars show standard deviation. The asterisks indicate the first statistically significant change in the G0/G1 and G2/M populations determined by a two-way ANOVA with a post-hoc Tukey's multiple comparisons test using 95% confidence intervals. FIG. 2B) is a line graph showing the percentage of HCT116 (p53−/−) cells, A549 cells, HeLa cells and H1299 cells in mitosis after treatment with various concentrations of C75 for one population doubling time. All of the cell lines show an increase in the proportion of mitotic cells after treatment with 200 nM C75. The bars indicate standard deviation. […]\n(§4) C75 was also tested for efficacy in different cancer cell lines. […] To further assess the role of C75 in disrupting spindles, HeLa cells were treated with 300 nM C75 for 4 hours and the spindle phenotypes were analyzed in more detail (FIG. 2E). […] To assess the affect of C75 on centrosomes, HeLa cells were treated with C75 or nocodazole (a drug that causes microtubule depolymerization as a control) for a short period of time (5 minutes), then the drugs were removed and the cells were analyzed for spindle phenotypes (schematic in FIG. 2G). […]"}, "[6]": {"system": "HFF1 cells", "test": "Spindle morphology, fixed cells stained for tubulin and DAPI", "format": "cell-based", "details": "300 nM", "description": "as §1, §2"}, "[7]": {"system": "HeLa cells in metaphase", "test": "Short treatment and washout, spindle recovery", "format": "cell-based, human", "details": "5 minutes treatment, washout, imaged after 40 minutes", "text": "as §3, §4"}, "[8]": {"system": "S2 cells", "test": "Spindle phenotypes in live S2 cells expressing GFP-tagged tubulin", "format": "cell-based, Drosophila", "details": "300 nM", "text": "This will permit using Drosophila proteins for binding studies in vitro, and genetics-based tools for further study of the target."}}, "data": [{"smiles": "COc1ccc(S(=O)(=O)N2Cc3ccccc3-c3sc(Br)cc32)cc1", "note": "[Compound C75]", "values": [{"measurement": "IC50", "setting": "[1]", "value": 377, "unit": "nM"}, {"measurement": "IC50", "setting": "[2]", "value": 431, "unit": "nM"}, {"measurement": "IC50", "setting": "[3]", "value": 789, "unit": "nM"}, {"measurement": "IC50", "setting": "[4]", "value": 427, "unit": "nM"}, {"measurement": "concentration at which mitotic cells show a small increase", "setting": "[5]", "value": 200, "unit": "nM"}, {"measurement": "mitotic spindle morphology", "setting": "[6]", "value": "not affected"}, {"measurement": "spindles reformed after drug removal", "setting": "[7]", "value": "tri- or multipolar spindles formed"}, {"measurement": "spindle phenotype in Drosophila S2 cells", "setting": "[8]", "value": "spindle phenotypes similar to what was observed in mammalian cells"}]}]}
